Experimental findings from patent publication US9670227B2, “Thienopyrimidine derivatives, a process for their preparation and pharmaceutical compositions containing them” (LES LABORATOIRES SERVIER, priority 2013, dated 2017) are described below.

By IC50 is commonly meant the concentration that inhibits the measured activity by half.

This assay deals with Mcl-1 protein (UniProtKB primary accession number: Q07820) (Homo sapiens, UniProt Q07820). The experiment in a line: Inhibition of Mcl-1 by fluorescence polarisation, Method 1. In kind it is binding. As to conditions: for IC50: read-out: IC50 (M) Mcl-1 FP; for percentage fluorescence polarisation inhibition (Mcl-1 FP), partial inhibitors: test compound at 10 uM. The gist of the method: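 Fluorescence polarisation competition with an 11-point compound dilution series (final DMSO 5%). Mcl-1 protein at 5 nM and fluorescein-labelled ligand at 1 nM (final) in 10 mM HEPES, 150 mM NaCl, 0.05% Tween 20, pH 7.4.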
On the technique in general: Fluorescence polarisation rises when a labelled molecule tumbles more slowly, as on binding a larger partner.

[1] abbreviates: fluorescence polarisation test, Method 1, or Method 2 where the value is underlined (underlining not visible).
[2] abbreviates: Method 1, or Method 2 where the value is underlined (underlining not visible).

Where two headings read alike, the source gives them in different places.

Chain of Mcl-1 protein (Q07820 whole entry): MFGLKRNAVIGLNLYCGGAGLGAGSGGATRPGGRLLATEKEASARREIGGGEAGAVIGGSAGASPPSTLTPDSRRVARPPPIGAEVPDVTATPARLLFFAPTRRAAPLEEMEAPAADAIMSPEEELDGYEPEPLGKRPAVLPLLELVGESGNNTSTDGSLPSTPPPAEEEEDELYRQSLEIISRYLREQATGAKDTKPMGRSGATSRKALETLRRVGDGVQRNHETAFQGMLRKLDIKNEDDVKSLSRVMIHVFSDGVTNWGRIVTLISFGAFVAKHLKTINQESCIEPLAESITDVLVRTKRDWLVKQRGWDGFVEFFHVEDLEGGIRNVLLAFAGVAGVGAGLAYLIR

For `CC#Cc1sc2ncnc(OC(Cc3ccccc3OCc3ccnn3C(C)(C)C)C(=O)OCC)c2c1-c1ccc(OCCN2CCN(C)CC2)c(Cl)c1C` [Example 792, ethyl (2R)-3-{2-[(1-tert-butyl-1H-pyrazol-5-yl)methoxy]phenyl}-2-{[(5Sa)-5-{3-chloro-2-methyl-4-[2-(4-methylpiperazin-1-yl)ethoxy]phenyl}-6-(prop-1-yn-1-yl)thieno[2,3-d]pyrimidin-4-yl]oxy}propanoate], the IC50 (fluorescence polarisation, Method 1, or Method 2) was 6.44e-06 M.

On to `CCOC(=O)C(Cc1ccccc1OCc1ccnc(-c2ccccc2O)n1)Oc1ncnc2sc(-c3ccc(F)cc3)c(-c3ccc(OCCN4CCN(C)CC4)c(Cl)c3C)c12` [Example 793, ethyl (2R)-2-{[(5Sa)-5-{3-chloro-2-methyl-4-[2-(4-methylpiperazin-1-yl)ethoxy]phenyl}-6-(4-fluorophenyl)thieno[2,3-d]pyrimidin-4-yl]oxy}-3-(2-{[2-(2-hydroxyphenyl)pyrimidin-4-yl]methoxy}phenyl)propanoate], for which, under setting [1], the IC50 is 5.37e-06 M. With `CCOC(=O)C(Cc1ccccc1OCc1ccnc(-c2ccccc2OC)n1)Oc1ncnc2sc(-c3ccc(F)cc3)c(-c3ccc(OCCN4CCNCC4)c(Cl)c3C)c12` [Example 795, ethyl (2R)-2-{[(5Sa)-5-{3-chloro-2-methyl-4-[2-(piperazin-1-yl)ethoxy]phenyl}-6-(4-fluorophenyl)thieno[2,3-d]pyrimidin-4-yl]oxy}-3-(2-{[2-(2-methoxyphenyl)pyrimidin-4-yl]methoxy}phenyl)propanoate], the IC50 under setting [1] amounted to 8.5e-07 M. Still for that read-out and setting: the result for `CCOC(=O)C(Cc1ccccc1OCc1ccnc(-c2ccccc2OCCOC)n1)Oc1ncnc2sc(-c3ccc(F)cc3)c(-c3ccc(OCCN4CCN(C)CC4)c(Cl)c3C)c12` [Example 796, ethyl (2R)-2-{[(5Sa)-5-{3-chloro-2-methyl-4-[2-(4-methylpiperazin-1-yl)ethoxy]phenyl}-6-(4-fluorophenyl)thieno[2,3-d]pyrimidin-4-yl]oxy}-3-[2-({2-[2-(2-methoxyethoxy)phenyl]pyrimidin-4-yl}methoxy)phenyl]propanoate] reads 5.16e-07 M; that for `CCOC(=O)C(Cc1ccccc1OCc1ccnc(-c2ccccc2F)n1)Oc1ncnc2sc(-c3ccc(F)cc3)c(-c3ccc(OCCN4CCN(C)CC4)c(Cl)c3C)c12` [Example 797, ethyl (2R)-2-{[(5Sa)-5-{3-chloro-2-methyl-4-[2-(4-methylpiperazin-1-yl)ethoxy]phenyl}-6-(4-fluorophenyl)thieno[2,3-d]pyrimidin-4-yl]oxy}-3-(2-{[2-(2-fluorophenyl)pyrimidin-4-yl]methoxy}phenyl)propanoate], 2.75e-06 M.

Consider `CCOC(=O)C(Cc1ccccc1OCc1ccnc(-c2ccccc2O)n1)Oc1ncnc2sc(-c3ccc(F)cc3)c(-c3ccc(OCCN4CCNCC4)c(Cl)c3C)c12` [Example 798, ethyl (2R)-2-{[(5Sa)-5-{3-chloro-2-methyl-4-[2-(piperazin-1-yl)ethoxy]phenyl}-6-(4-fluorophenyl)thieno[2,3-d]pyrimidin-4-yl]oxy}-3-(2-{[2-(2-hydroxyphenyl)pyrimidin-4-yl]methoxy}phenyl)propanoate], for which the IC50 under setting [1] came out at 5.15e-06 M. For the molecule `COCCOC(=O)[C@@H](Cc1ccccc1OCc1ccnc(-c2ccccc2F)n1)Oc1ncnc2sc(-c3ccc(F)cc3)c(-c3ccc(OCCN(C)C)c(Cl)c3C)c12` [Example 799, 2-methoxyethyl (2R)-2-{[(5Sa)-5-{3-chloro-4-[2-(dimethylamino)ethoxy]-2-methylphenyl}-6-(4-fluorophenyl)thieno[2,3-d]pyrimidin-4-yl]oxy}-3-(2-{[2-(2-fluorophenyl)pyrimidin-4-yl]methoxy}phenyl)propanoate], the “percentage fluorescence polarisation inhibition (Mcl-1 FP), partial inhibitors” value under setting [2] was 59.6% @ 10 uM. Regarding `COCCOC(=O)C(Cc1ccccc1OCc1ccnc(-c2ccccc2OCCOC)n1)Oc1ncnc2sc(-c3ccc(F)cc3)c(-c3ccc(OCCN(C)C)c(Cl)c3C)c12` [Example 800, 2-methoxyethyl (2R)-2-{[(5Sa)-5-{3-chloro-4-[2-(dimethylamino)ethoxy]-2-methylphenyl}-6-(4-fluorophenyl)thieno[2,3-d]pyrimidin-4-yl]oxy}-3-[2-({2-[2-(2-methoxyethoxy)phenyl]pyrimidin-4-yl}methoxy)phenyl]propanoate], the IC50 under setting [1] came to 1.39e-06 M.

With `CCOC(=O)C(Cc1ccccc1OCc1ccnc(-c2ccccc2F)n1)Oc1ncnc2sc(-c3ccc(F)cc3)c(-c3ccc(OCCN(C)CC)c(Cl)c3C)c12` [Example 801, ethyl (2R)-2-{[(5Sa)-5-(3-chloro-4-{2-[ethyl(methyl)amino]ethoxy}-2-methylphenyl)-6-(4-fluorophenyl)thieno[2,3-d]pyrimidin-4-yl]oxy}-3-(2-{[2-(2-fluorophenyl)pyrimidin-4-yl]methoxy}phenyl)propanoate], the half-inhibitory concentration (IC50) under setting [1] is 4.37e-06 M. Take `COCCOC(=O)C(Cc1ccccc1OCc1ccnn1C(C)(C)C)Oc1ncnc2sc(-c3ccc(F)cc3)c(-c3ccc(OCCN(C)C)c(Cl)c3C)c12` [Example 802, 2-methoxyethyl (2R)-3-{2-[(1-tert-butyl-1H-pyrazol-5-yl)methoxy]phenyl}-2-{[(5Sa)-5-{3-chloro-4-[2-(dimethylamino)ethoxy]-2-methylphenyl}-6-(4-fluorophenyl)thieno[2,3-d]pyrimidin-4-yl]oxy}propanoate]: the IC50 under setting [1] was 2.88e-06 M. Still for that read-out and setting: the result for `CCN(C)CCOc1ccc(-c2c(-c3ccc(F)cc3)sc3ncnc(OC(Cc4ccccc4OCc4ccnc(-c5ccccc5F)n4)C(=O)OCCOC)c23)c(C)c1Cl` [Example 803, 2-methoxyethyl (2R)-2-{[(5Sa)-5-(3-chloro-4-{2-[ethyl(methyl)amino]ethoxy}-2-methylphenyl)-6-(4-fluorophenyl)thieno[2,3-d]pyrimidin-4-yl]oxy}-3-(2-{[2-(2-fluorophenyl)pyrimidin-4-yl]methoxy}phenyl)propanoate] reads 3.14e-06 M. Turning to `CCOC(=O)C(Cc1ccccc1OCc1ccnn1C(C)(C)C)Oc1ncnc2sc(-c3cccc(F)c3F)c(-c3ccc(OCCN(C)C)c(Cl)c3C)c12` [Example 804, ethyl (2R)-3-{2-[(1-tert-butyl-1H-pyrazol-5-yl)methoxy]phenyl}-2-{[(5Sa)-5-{3-chloro-4-[2-(dimethylamino)ethoxy]-2-methylphenyl}-6-(2,3-difluorophenyl)thieno[2,3-d]pyrimidin-4-yl]oxy}propanoate], under setting [1], the IC50 was determined as 4.68e-05 M. Take `COCCOC(=O)[C@@H](Cc1ccccc1OCc1ccnn1C(C)(C)C)Oc1ncnc2sc(-c3cccc(F)c3F)c(-c3ccc(OCCN(C)C)c(Cl)c3C)c12` [Example 805, 2-methoxyethyl (2R)-3-{2-[(1-tert-butyl-1H-pyrazol-5-yl)methoxy]phenyl}-2-{[(5Sa)-5-{3-chloro-4-[2-(dimethylamino)ethoxy]-2-methylphenyl}-6-(2,3-difluorophenyl)thieno[2,3-d]pyrimidin-4-yl]oxy}propanoate]: under setting [2], the “percentage fluorescence polarisation inhibition (Mcl-1 FP), partial inhibitors” value is 53.5% @ 10 uM.

Regarding `CCOC(=O)C(Cc1ccccc1OCc1ccnc(-c2ccccc2OCCOC)n1)Oc1ncnc2sc(-c3ccc(F)cc3)c(-c3ccc(OCCN(C)C)c(Cl)c3C)c12` [Example 806, ethyl (2R)-2-{[(5Sa)-5-{3-chloro-4-[2-(dimethylamino)ethoxy]-2-methylphenyl}-6-(4-fluorophenyl)thieno[2,3-d]pyrimidin-4-yl]oxy}-3-[2-({2-[2-(2-methoxyethoxy)phenyl]pyrimidin-4-yl}methoxy)phenyl]propanoate], the IC50 under setting [1] was 1.63e-06 M. For `CCOC(=O)[C@@H](Cc1ccccc1OCc1ccnc(-c2ccccc2F)n1)Oc1ncnc2sc(-c3ccc(F)cc3)c(-c3ccc(OCCN(C)C)c(Cl)c3C)c12` [Example 807, ethyl (2R)-2-{[(5Sa)-5-{3-chloro-4-[2-(dimethylamino)ethoxy]-2-methylphenyl}-6-(4-fluorophenyl)thieno[2,3-d]pyrimidin-4-yl]oxy}-3-(2-{[2-(2-fluorophenyl)pyrimidin-4-yl]methoxy}phenyl)propanoate], under setting [2], the “percentage fluorescence polarisation inhibition (Mcl-1 FP), partial inhibitors” value turned out to be 52.45% @ 10 uM. As for `CCCCCCCCOC(=O)[C@@H](Cc1ccccc1OCc1ccnc(-c2ccccc2OC)n1)Oc1ncnc2sc(-c3ccc(F)cc3)c(-c3ccc(OCCN4CCN(C)CC4)c(Cl)c3C)c12` [Example 815, octyl (2R)-2-{[(5Sa)-5-{3-chloro-2-methyl-4-[2-(4-methylpiperazin-1-yl)ethoxy]phenyl}-6-(4-fluorophenyl)thieno[2,3-d]pyrimidin-4-yl]oxy}-3-(2-{[2-(2-methoxyphenyl)pyrimidin-4-yl]methoxy}phenyl)propanoate], the “percentage fluorescence polarisation inhibition (Mcl-1 FP), partial inhibitors” value under setting [2] worked out at 19.95% @ 10 uM. Consider `Cc1c(-c2c(-c3ccc(F)cc3)sc3ncnc(OC(Cc4ccccc4OCc4ccnc(-c5ccccc5F)n4)C(=O)OCC(=O)N(C)C)c23)ccc(OCCN2CCN(C)CC2)c1Cl` [Example 816, 2-(dimethylamino)-2-oxoethyl (2R)-2-{[(5Sa)-5-{3-chloro-2-methyl-4-[2-(4-methylpiperazin-1-yl)ethoxy]phenyl}-6-(4-fluorophenyl)thieno[2,3-d]pyrimidin-4-yl]oxy}-3-(2-{[2-(2-fluorophenyl)pyrimidin-4-yl]methoxy}phenyl)propanoate], for which the concentration for half-maximal inhibition (IC50) under setting [1] came to 1.72e-07 M. The same measure, in the same setting: the figure for `Cc1c(-c2c(-c3ccc(F)cc3)sc3ncnc(OC(Cc4ccccc4OCc4ccnn4C(C)(C)C)C(=O)OCC(=O)N(C)C)c23)ccc(OCCN(C)C)c1Cl` [Example 817, 2-(dimethylamino)-2-oxoethyl (2R)-3-{2-[(1-tert-butyl-1H-pyrazol-5-yl)methoxy]phenyl}-2-{[(5Sa)-5-{3-chloro-4-[2-(dimethylamino)ethoxy]-2-methylphenyl}-6-(4-fluorophenyl)thieno[2,3-d]pyrimidin-4-yl]oxy}propanoate] is 4.75e-07 M.
